Several values for one entry are separate records, joined by “and”; a condition that tells them apart may be missing. Equal values may be shown once. Entries after “also recorded” stand apart in the source; their conditions may differ. Read-outs that look alike come from different tables or passages of the source.
Key:
B16F10 melanoma cells [1] = assay: Melanin content assay in α-MSH plus IBMX-stimulated B16F10 melanoma cells; type: cell-based, murine; conditions: 48 h
Procedure: Melanin contents in B16F10 cells were assessed by measuring optical densities spectrophotometrically. […] After washing cells with PBS two or three times, they were incubated for 1 h in 100 µL of 1N NaOH solution at 60 °C. […] All experiments were independently repeated three times.

mushroom tyrosinase [2] = molecular target: T1, mushroom tyrosinase (Agaricus bisporus, UniProt C7FF04); assay: Mushroom tyrosinase inhibitory assay (L-tyrosine substrate); type: biochemical; conditions: for Tyrosinase Inhibition (%) / inhibition at 50 µM: 50 μM, L-tyrosine as substrate, mean ± SEM, NI means no inhibition
Procedure: The experiment was repeated three times. Mushroom tyrosinase inhibitions % were calculated using:% Inhibition = [1 − (A/B)] × 100(1) where A is the absorbance of the test compound and B is the absorbance of the blank.
Log-linear curves were plotted, and their equations were determined.
Target sequence in this assay (C7FF04 1-392 limits assumed): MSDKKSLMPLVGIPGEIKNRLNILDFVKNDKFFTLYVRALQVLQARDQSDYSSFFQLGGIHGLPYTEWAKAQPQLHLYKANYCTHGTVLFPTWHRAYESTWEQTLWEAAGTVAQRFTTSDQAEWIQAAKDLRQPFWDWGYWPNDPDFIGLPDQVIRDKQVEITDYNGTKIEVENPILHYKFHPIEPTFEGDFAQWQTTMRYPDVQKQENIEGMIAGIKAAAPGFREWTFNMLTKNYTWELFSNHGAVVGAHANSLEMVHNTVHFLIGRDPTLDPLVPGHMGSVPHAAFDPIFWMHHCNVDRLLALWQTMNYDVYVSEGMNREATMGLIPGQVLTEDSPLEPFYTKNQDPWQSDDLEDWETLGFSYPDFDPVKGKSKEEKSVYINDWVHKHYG

B16F10 melanoma cells [3] = assay: EZ-cytox cell viability assay; type: cell-based, murine; conditions: 1–20 µM, 24 h
Procedure: EZ-cytox assays were performed to examine whether these compounds are cytotoxic.
B16F10 murine melanoma cells were purchased from the American Type Culture Collection (ATCC, Manassas, VA, USA). Cells were cultured in Dulbecco’s modified Eagle’s medium (10% fetal bovine serum (FBS), and 1% streptomycin) obtained from Gibco/Thermo Fisher Scientific (Carlsbad, CA, USA) at 37 °C in a 5% CO2 environment. These cultured cells were used for cell viability, melanin content, and cellular tyrosinase inhibitory assays.
EZ-cytox assays were performed on 1c, 1h, and 2a, according to previously described. B16F10 cells were seeded in a 96-well plate at a density of 5 × 10^4 cells/well and incubated at 37 °C in a humidified 5% CO2 atmosphere overnight. Cells were then treated with different concentrations of 1c, 1h, or 2a (0, 1, 2, 5, 10, or 20 µM) and incubated for 24 h under the same conditions. EZ-cytox solution (10 µL) was then added and the plate was incubated for 3 h at 37 °C in a humidified 5% CO2 atmosphere. Optical densities of wells were measured at 450 nm using an ELISA reader. All experiments were independently repeated three times.

mushroom tyrosinase [4] = molecular target: T1, mushroom tyrosinase; assay: Kinetic analysis of mushroom tyrosinase inhibition, Lineweaver–Burk plots; type: biochemical
Procedure: Briefly, 170 μL of a mixture of an aqueous solution of L-[…].0, 2.0, 4.0, or 8.0 mM and 50 mM of potassium phosphate (pH 6.5) was added to a 96-well plate. […] Lineweaver-Burk plots were used to determine Vmax (maximal reaction rates) and KM (Michaelis-Menten constants) of mushroom tyrosinase activities.
Target sequence in this assay (C7FF04 1-392): as the sequence (C7FF04 1-392 limits assumed) above

[5] = molecular target: T2, tyrosinase in B16F10 melanoma cells (Mus musculus, UniProt P11344); assay: Cellular tyrosinase activity in α-MSH plus IBMX-stimulated B16F10 melanoma cells; conditions: 48 h
T2 sequence (P11344 19-533): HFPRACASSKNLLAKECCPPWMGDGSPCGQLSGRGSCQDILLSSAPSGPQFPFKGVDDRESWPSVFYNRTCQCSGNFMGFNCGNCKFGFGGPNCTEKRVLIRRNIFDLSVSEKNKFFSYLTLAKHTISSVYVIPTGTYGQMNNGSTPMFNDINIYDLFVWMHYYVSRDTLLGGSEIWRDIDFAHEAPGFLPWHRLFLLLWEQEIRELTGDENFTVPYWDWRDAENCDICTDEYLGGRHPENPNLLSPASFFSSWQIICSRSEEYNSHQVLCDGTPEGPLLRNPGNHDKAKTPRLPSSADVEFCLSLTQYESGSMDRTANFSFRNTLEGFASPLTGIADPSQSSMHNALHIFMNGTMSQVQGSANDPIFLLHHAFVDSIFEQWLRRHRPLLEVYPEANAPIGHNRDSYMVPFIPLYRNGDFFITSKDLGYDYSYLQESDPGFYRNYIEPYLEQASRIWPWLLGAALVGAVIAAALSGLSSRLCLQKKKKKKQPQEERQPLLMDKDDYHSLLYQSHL
Procedure: Cells were washed with PBS two or three times, lysed with a 100 μL of buffer (90 μL of PBS (50 mM), 5 μL of PMSF (0.1 mM), and 5 μL of 1% Triton X-100), frozen at −80 °C for 30 min, and centrifuged at 12,000 rpm for 30 min at 4 °C. Lysate supernatants (80 µL) were mixed with 20 µL of L-dopa (2 mg/mL) in a 96-well plate and incubated at 37 °C for 15 min. […] All the experiments were independently repeated three times.

OCc1ccccc1-c1ccc(O)cc1O [Compound 2a, 2′-(Hydroxymethyl)-[1,1′-biphenyl]-2,4-diol]
Melanin content (B16F10 melanoma cells [1]; 5 µM, kojic acid 20 µM as comparator): more potently than kojic acid | Melanin content (B16F10 melanoma cells [1]; 20 μM, kojic acid 20 µM as comparator): more so than kojic acid | Melanin content (B16F10 melanoma cells [1]; 5, 10, 20 μM): more strongly than KA; also recorded: reduced melanin levels significantly and concentration-dependently; also recorded: effectively and dose-dependently | Inhibition (%), single determinations (mushroom tyrosinase [2]; 1.56 μM): 0.27% and 0.72% and 1.06% | inhibition at 1.56 µM (mushroom tyrosinase [2]; 1.56 μM, read-out: Average of Inhibition (%)): 0.68 ± 0.23% | inhibition at 3.13 µM (mushroom tyrosinase [2]; 3.13 μM, read-out: Average of Inhibition (%)): 15.1 ± 6.53% | Inhibition (%), single determinations (mushroom tyrosinase [2]; 6.25 μM): 31.66% and 31.22% | inhibition at 6.25 µM (mushroom tyrosinase [2]; 6.25 μM, read-out: Average of Inhibition (%)): 31.71 ± 0.3% | inhibition at 6.25 µM (mushroom tyrosinase [2]; 6.25 μM, read-out: Inhibition (%), single determinations): 32.2% | Inhibition (%), single determinations (mushroom tyrosinase [2]; 12.50 μM, 12.5 µM): 50.39% and 54.31% | inhibition at 12.5 µM (mushroom tyrosinase [2]; 12.50 μM, read-out: Average of Inhibition (%)): 53.5 ± 1.62% | inhibition at 12.5 µM (mushroom tyrosinase [2]; 12.50 μM, read-out: Inhibition (%), single determinations): 55.8% | Inhibition (%), single determinations (mushroom tyrosinase [2]; 25.00 μM): 68.71% and 69.37% | inhibition at 25 µM (mushroom tyrosinase [2]; 25.00 μM, read-out: Average of Inhibition (%)): 69.3 ± 0.32% | inhibition at 25 µM (mushroom tyrosinase [2]; 25.00 μM, read-out: Inhibition (%), single determinations): 69.8% | Tyrosinase Inhibition (%) (mushroom tyrosinase [2]): 75.92 ± 2.19% | inhibition at 50 µM (mushroom tyrosinase [2]): 76% | IC50 (mushroom tyrosinase [2]; mushroom tyrosinase, L-tyrosine, read-out: IC50): 15.7 ± 0.4 µM | Cytotoxic effect (B16F10 melanoma cells [3]): No significant cytotoxic effect; also recorded: not cytotoxic | Mode of tyrosinase inhibition (mushroom tyrosinase [4]; Lineweaver–Burk analysis, L-tyrosine as substrate): competitive inhibitors | Vmax (mushroom tyrosinase [4]; inhibitor 10 μM, L-tyrosine 1.0–8.0 mM): 0.029 mM/min | Vmax (mushroom tyrosinase [4]; inhibitor 20 μM, L-tyrosine 1.0–8.0 mM): 0.029 mM/min | Vmax (mushroom tyrosinase [4]; inhibitor 40 μM, L-tyrosine 1.0–8.0 mM): 0.029 mM/min | Vmax (mushroom tyrosinase [4]; not dependent on inhibitor concentration): 0.029 mM/min | Cellular tyrosinase activity ([5]; 10 μM, α-MSH plus IBMX, kojic acid 20 μM as comparator): greater at 10 μM than kojic acid at 20 μM | Cellular tyrosinase activity ([5]; 20 μM, α-MSH plus IBMX, kojic acid 20 µM as comparator): much higher than that of kojic acid; also recorded: reduced tyrosinase activity to the untreated control levels | Cellular tyrosinase activity ([5]; 5, 10, 20 μM, α-MSH (1 μM) plus IBMX (200 μM)): more strongly than KA; also recorded: decreased significantly and concentration-dependently; also recorded: effectively and dose-dependently

COc1ccc(-c2ccccc2CO)c(O)c1 [Compound 2b, 2′-(Hydroxymethyl)-4-methoxy-[1,1′-biphenyl]-2-ol]
inhibition at 50 µM (mushroom tyrosinase [2]): < 0%

OCc1ccccc1-c1c(O)cc(O)cc1O [Compound 2c, 2′-(Hydroxymethyl)-[1,1′-biphenyl]-2,4,6-triol]
Tyrosinase Inhibition (%) (mushroom tyrosinase [2]): 19.78 ± 15.84% | inhibition at 50 µM (mushroom tyrosinase [2]): 20%

COc1cc(O)c(-c2ccccc2CO)c(OC)c1 [Compound 2d, 2′-(Hydroxymethyl)-4,6-dimethoxy-[1,1′-biphenyl]-2-ol]
inhibition at 50 µM (mushroom tyrosinase [2]): < 0%

OCc1cc(O)ccc1-c1ccc(O)cc1O [Compound 2e, 2′-(Hydroxymethyl)-[1,1′-biphenyl]-2,4,4′-triol]
inhibition at 50 µM (mushroom tyrosinase [2]): < 0%

COc1ccc(-c2ccc(O)cc2O)c(CO)c1 [Compound 2f, 2′-(Hydroxymethyl)-4′-methoxy-[1,1′-biphenyl]-2,4-diol]
inhibition at 50 µM (mushroom tyrosinase [2]): 47.9 ± 12.8%

COc1ccc(-c2ccc(OC)cc2CO)c(O)c1 [Compound 2g, 2′-(Hydroxymethyl)-4,4′-dimethoxy-[1,1′-biphenyl]-2-ol]
inhibition at 50 µM (mushroom tyrosinase [2]): < 0%

COc1ccc(-c2c(O)cc(O)cc2O)c(CO)c1 [Compound 2h, 2′-(Hydroxymethyl)-4′-methoxy-[1,1′-biphenyl]-2,4,6-triol]
Tyrosinase Inhibition (%) (mushroom tyrosinase [2]): 26.30 ± 0.75% | inhibition at 50 µM (mushroom tyrosinase [2]): 26%

COc1ccc(-c2c(O)cc(OC)cc2OC)c(CO)c1 [Compound 2i, 2′-(Hydroxymethyl)-4,4′,6-trimethoxy-[1,1′-biphenyl]-2-ol]
inhibition at 50 µM (mushroom tyrosinase [2]): < 0%

Source: publication PMC8199067, “Urolithin and Reduced Urolithin Derivatives as Potent Inhibitors of Tyrosinase and Melanogenesis: Importance of the 4-Substituted Resorcinol Moiety” (International Journal of Molecular Sciences, 2021)
